In patent publication US7074789B2, “Kinase inhibitors” (Amgen Inc., priority 1999, dated 2006):
Where two headings read alike, the source gives them in different places.

What was measured:
Type in all cases: biochemical
Lck = target: T1, Lck (Homo sapiens, UniProt P06239); assay: Kinase inhibition assay (33P transfer), Lck; conditions: read-out: Lck-1
T1 construct: Kinases are expressed as either kinase domains or full length constructs; made in house
Procedure, shortened: (§1)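 Kinase domain or full-length constructs, GST- or polyHis-tagged, expressed in E. coli or baculovirus-High Five cells, sometimes with regulatory polypeptides. Activity measured as 33PO4 transfer from ATP to plate-bound poly(Glu,Tyr) 4:1 or poly(Arg,Ser) 3:1; after incubation, plates washed with 0.5% phosphoric acid and counted by liquid scintillation.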

Zap-70 = target: T2, Zap-70 (Homo sapiens, UniProt P43403); assay: Kinase inhibition assay (33P transfer), Zap-70; conditions: read-out: Zap-1
T2 construct: Kinases are expressed as either kinase domains or full length constructs; made in house
T2 sequence (P43403 1-619): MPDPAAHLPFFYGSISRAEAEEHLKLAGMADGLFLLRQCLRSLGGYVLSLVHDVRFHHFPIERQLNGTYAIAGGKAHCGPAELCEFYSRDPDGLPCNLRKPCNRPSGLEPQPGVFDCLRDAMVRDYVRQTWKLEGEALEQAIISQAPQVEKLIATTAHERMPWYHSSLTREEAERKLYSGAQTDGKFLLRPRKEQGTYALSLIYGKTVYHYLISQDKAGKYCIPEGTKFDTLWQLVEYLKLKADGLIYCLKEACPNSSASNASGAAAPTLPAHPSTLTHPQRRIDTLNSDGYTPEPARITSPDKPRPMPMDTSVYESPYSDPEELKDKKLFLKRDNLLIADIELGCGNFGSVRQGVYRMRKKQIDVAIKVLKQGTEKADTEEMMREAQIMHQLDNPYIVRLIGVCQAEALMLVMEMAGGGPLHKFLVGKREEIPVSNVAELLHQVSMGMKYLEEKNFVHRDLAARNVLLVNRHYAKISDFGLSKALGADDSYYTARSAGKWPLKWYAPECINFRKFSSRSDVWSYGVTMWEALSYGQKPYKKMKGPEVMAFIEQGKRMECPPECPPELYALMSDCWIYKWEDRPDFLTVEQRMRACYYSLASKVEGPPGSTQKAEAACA
Procedure, shortened: as §1

Itk = target: T3, Itk (Homo sapiens, UniProt Q08881); assay: Kinase inhibition assay (33P transfer), Itk; conditions: read-out: Itk-1
T3 construct: Kinases are expressed as either kinase domains or full length constructs; made in house
T3 sequence (Q08881 1-620): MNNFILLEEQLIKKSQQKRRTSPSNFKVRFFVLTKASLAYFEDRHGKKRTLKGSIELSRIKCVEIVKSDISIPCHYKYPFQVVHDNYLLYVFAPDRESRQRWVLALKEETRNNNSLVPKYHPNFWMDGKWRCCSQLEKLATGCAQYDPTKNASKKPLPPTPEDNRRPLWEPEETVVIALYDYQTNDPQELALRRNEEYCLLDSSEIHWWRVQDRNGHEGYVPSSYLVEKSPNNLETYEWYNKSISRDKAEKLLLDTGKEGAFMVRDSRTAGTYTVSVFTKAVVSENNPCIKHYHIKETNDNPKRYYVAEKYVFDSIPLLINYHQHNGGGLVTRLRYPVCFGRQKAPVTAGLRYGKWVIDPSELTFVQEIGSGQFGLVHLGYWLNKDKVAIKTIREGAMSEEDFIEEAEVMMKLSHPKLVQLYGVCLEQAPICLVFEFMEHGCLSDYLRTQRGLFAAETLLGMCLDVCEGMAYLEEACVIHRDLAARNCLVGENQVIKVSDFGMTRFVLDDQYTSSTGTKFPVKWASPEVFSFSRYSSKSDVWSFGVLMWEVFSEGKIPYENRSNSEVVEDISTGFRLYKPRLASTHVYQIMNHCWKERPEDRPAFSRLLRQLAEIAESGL
Procedure, shortened: (§2)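 Activity read as 33P incorporation from ATP into poly(Glu,Tyr) 4:1 or poly(Arg,Ser) 3:1 substrate bound to microtiter plates, measured by scintillation after acid washing. Enzymes were affinity-purified GST or polyHis fusions (kinase domain or full length) from E. coli or baculovirus; IC50 = 50% reduction in labelled phosphate.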

EGFR = target: T4, EGFR (Homo sapiens, UniProt P00533); assay: Kinase inhibition assay (33P transfer), EGFR; conditions: Table 2, kinase inhibition class; read-out: EGFR-1
T4 construct: Kinases are expressed as either kinase domains or full length constructs; made in house
T4 sequence (P00533 25-1210, species assumed): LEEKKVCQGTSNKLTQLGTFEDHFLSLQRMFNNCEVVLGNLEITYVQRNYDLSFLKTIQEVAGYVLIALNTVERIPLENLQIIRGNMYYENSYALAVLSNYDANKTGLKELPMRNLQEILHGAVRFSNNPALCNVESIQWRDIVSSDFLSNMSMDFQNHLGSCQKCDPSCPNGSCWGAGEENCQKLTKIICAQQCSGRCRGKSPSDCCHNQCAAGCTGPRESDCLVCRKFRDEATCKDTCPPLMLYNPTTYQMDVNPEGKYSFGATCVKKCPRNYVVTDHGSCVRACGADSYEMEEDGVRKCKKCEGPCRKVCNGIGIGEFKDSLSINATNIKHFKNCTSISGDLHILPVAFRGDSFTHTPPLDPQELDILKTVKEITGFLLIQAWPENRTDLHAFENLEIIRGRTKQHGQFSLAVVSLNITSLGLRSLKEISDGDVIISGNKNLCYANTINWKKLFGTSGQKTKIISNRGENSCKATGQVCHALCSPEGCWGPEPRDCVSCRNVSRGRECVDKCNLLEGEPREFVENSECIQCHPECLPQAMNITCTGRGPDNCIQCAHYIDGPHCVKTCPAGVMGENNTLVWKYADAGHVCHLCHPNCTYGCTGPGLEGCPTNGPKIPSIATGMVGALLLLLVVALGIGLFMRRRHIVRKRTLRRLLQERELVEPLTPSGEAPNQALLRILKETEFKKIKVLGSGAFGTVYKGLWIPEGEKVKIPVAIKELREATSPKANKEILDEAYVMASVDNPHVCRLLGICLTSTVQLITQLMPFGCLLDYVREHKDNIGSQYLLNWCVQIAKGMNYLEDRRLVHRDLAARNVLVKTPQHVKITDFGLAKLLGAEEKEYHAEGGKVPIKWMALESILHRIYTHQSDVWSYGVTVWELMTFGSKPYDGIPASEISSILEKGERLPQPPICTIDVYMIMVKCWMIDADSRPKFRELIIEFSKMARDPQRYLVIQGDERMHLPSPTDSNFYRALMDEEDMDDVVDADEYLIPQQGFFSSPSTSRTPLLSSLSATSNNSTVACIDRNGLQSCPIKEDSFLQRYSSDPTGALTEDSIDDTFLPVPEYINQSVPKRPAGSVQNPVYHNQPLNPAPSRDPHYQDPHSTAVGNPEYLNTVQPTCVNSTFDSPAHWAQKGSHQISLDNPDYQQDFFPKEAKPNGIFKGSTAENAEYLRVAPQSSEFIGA
Procedure, shortened: as §2

Kdr = target: T5, Kdr (Homo sapiens, UniProt P35968); assay: Kinase inhibition assay (33P transfer), Kdr; conditions: read-out: KDR-1
T5 construct: Kinases are expressed as either kinase domains or full length constructs; made in house
Procedure, shortened: as §1

c-Met = target: T6, c-Met (Homo sapiens, UniProt P08581); assay: Kinase inhibition assay (33P transfer), c-Met; conditions: Table 2, kinase inhibition class; read-out: Met-1
T6 construct: Kinases are expressed as either kinase domains or full length constructs; made in house
T6 sequence (P08581 25-1390): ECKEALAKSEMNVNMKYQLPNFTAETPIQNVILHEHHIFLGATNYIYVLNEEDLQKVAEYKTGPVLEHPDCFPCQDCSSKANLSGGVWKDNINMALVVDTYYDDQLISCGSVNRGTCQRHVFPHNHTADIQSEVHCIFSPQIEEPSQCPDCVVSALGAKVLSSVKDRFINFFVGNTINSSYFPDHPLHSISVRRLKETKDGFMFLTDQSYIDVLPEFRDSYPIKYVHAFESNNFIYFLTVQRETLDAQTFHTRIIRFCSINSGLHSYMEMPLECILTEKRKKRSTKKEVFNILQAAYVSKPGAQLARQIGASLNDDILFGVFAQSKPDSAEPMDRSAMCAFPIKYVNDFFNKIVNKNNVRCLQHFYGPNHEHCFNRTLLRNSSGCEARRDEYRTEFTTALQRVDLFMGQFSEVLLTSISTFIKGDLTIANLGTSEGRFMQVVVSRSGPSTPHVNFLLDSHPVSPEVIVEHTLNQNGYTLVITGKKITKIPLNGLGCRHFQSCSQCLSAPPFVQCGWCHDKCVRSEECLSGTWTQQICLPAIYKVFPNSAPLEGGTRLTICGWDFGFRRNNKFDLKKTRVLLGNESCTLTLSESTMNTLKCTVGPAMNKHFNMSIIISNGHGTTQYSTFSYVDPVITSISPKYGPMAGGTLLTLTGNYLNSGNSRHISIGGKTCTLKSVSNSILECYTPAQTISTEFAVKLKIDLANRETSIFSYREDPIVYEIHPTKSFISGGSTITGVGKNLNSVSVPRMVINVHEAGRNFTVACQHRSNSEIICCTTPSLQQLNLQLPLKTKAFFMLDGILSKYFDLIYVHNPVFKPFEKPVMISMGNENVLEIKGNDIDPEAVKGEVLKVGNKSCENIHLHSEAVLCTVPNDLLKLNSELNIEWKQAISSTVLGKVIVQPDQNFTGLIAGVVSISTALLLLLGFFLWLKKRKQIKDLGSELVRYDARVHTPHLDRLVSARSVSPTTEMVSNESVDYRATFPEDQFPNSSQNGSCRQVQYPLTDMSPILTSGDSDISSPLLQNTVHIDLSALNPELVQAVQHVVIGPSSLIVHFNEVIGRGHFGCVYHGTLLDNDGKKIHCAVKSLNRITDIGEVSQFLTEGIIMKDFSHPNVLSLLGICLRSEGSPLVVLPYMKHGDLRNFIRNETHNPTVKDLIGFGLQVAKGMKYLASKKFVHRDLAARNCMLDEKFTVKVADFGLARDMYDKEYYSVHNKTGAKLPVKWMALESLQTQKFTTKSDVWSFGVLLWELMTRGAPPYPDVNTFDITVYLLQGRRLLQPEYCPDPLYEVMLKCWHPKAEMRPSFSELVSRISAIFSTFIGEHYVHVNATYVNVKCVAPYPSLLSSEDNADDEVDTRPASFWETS
Procedure, shortened: as §2

AKT = target: T7, AKT (Homo sapiens, UniProt Q9Y243); assay: Kinase inhibition assay (33P transfer), AKT; conditions: Table 2, kinase inhibition class; read-out: AKT3-1
T7 construct: Kinases are expressed as either kinase domains or full length constructs; made in house
T7 sequence (Q9Y243 whole entry, the tested form may be a part): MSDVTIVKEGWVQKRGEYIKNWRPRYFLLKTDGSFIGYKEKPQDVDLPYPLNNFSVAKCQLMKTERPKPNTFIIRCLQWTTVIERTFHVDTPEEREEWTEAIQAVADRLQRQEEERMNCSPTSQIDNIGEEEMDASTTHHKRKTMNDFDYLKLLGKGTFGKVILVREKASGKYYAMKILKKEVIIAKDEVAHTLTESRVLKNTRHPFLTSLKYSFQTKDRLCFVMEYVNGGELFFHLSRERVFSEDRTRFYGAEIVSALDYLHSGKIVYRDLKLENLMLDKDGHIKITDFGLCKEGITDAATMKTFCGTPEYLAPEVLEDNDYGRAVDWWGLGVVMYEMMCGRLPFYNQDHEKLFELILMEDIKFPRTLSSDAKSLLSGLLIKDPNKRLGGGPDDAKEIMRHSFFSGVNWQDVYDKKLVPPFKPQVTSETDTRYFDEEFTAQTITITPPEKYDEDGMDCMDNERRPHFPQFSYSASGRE
Procedure, shortened: as §1

IGFR-1 [1] = target: T8, IGFR-1 (Homo sapiens, UniProt P08069); assay: Kinase inhibition assay (33P transfer), IGFR-1; conditions: Table 2, kinase inhibition class
T8 construct: Kinases are expressed as either kinase domains or full length constructs; made in house
T8 sequence (P08069 31-1367): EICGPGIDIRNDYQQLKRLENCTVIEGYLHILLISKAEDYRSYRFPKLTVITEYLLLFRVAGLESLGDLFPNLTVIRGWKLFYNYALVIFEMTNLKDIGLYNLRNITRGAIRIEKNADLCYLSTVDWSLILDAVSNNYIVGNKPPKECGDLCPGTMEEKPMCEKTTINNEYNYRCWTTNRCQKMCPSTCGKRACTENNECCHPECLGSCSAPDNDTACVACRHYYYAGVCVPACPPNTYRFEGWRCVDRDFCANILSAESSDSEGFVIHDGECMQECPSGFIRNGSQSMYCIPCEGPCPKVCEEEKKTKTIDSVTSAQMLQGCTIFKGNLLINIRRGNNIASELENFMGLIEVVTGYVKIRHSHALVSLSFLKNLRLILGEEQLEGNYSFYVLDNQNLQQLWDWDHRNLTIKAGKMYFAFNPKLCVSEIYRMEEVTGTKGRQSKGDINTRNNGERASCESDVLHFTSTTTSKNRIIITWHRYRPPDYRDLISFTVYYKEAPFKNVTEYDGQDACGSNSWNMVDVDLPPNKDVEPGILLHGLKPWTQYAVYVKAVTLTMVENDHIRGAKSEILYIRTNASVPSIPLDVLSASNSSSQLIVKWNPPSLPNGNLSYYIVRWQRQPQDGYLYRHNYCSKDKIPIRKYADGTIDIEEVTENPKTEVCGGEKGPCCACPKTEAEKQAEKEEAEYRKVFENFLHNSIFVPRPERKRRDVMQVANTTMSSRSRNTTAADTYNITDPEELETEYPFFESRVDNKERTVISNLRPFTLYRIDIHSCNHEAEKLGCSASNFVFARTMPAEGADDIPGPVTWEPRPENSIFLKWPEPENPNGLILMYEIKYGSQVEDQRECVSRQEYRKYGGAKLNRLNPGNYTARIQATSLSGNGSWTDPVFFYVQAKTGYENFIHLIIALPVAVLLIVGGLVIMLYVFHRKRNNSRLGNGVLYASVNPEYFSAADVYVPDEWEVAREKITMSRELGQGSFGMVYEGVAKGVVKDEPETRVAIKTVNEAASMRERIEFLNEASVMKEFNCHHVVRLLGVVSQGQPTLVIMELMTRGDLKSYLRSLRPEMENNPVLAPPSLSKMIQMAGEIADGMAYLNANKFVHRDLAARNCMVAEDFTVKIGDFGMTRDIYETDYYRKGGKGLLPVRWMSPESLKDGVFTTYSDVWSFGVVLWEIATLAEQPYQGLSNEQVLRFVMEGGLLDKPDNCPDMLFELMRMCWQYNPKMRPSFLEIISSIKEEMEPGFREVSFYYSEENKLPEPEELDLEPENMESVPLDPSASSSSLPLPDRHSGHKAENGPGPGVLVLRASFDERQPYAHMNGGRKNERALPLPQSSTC

ErbB2 = target: T9, ErbB2 (Homo sapiens, UniProt P04626); assay: Kinase inhibition assay (33P transfer), ErbB2; conditions: read-out: ErbB2-2
T9 construct: Kinases are expressed as either kinase domains or full length constructs; made in house
Procedure, shortened: as §2

IGFR-1 [2] = target: T8, IGFR-1; assay: Kinase inhibition assay, IGFR-1 (Table 2); conditions: Table 2, kinase inhibition class
PDGFRB = target: T10, PDGFRB (Homo sapiens, UniProt P09619); assay: Kinase inhibition assay (33P transfer), PDGFRB; conditions: read-out: PDGFRB-1
T10 construct: Kinases are expressed as either kinase domains or full length constructs; made in house

T1 sequence (P06239 whole entry, species assumed, the tested form may be a part): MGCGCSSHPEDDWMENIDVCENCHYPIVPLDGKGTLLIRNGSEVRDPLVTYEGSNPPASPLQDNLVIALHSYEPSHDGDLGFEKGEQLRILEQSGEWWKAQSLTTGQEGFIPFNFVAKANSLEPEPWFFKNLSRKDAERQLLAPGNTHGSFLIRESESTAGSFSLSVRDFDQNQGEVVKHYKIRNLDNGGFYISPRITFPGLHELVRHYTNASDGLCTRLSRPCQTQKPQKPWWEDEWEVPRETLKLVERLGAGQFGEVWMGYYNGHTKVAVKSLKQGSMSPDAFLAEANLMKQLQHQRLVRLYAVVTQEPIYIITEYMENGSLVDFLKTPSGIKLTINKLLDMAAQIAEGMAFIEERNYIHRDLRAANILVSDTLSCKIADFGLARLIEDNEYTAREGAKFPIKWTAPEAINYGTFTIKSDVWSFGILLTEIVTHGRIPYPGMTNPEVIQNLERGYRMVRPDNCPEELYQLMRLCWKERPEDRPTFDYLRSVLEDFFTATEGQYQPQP

| Compound | IC50 (Lck; Table 3) [µM] | IC50 (Zap-70; Table 3) [µM] | IC50 (Itk; Table 3) [µM] | IC50 (EGFR) [µM] | IC50 (Kdr; Table 3) [µM] | IC50 (c-Met) [µM] | IC50 (AKT) [µM] | IC50 (IGFR-1 [1]) [µM] | IC50 (Lck) [µM] | IC50 (Zap-70) [µM] | IC50 (Itk) [µM] | IC50 (ErbB2) [µM] | IC50 (Kdr) [µM] | IC50 (IGFR-1 [2]) [µM] | IC50 (PDGFRB) [µM] |
| --- | --- | --- | --- | --- | --- | --- | --- | --- | --- | --- | --- | --- | --- | --- | --- |
| Fc1ccccc1Nc1ncnc(-c2ccccc2)n1 [Compound 20] | > 16.9 | > 16.9 | > 16.9 | > 16.9 | > 16.9 | > 16.9 | > 16.9 | > 16.9 |  |  |  |  |  |  |  |
| COC(=O)c1ccc(Nc2ncnc(-c3ccccc3)n2)cc1 [Compound 163] | > 14.7 | > 14.7 | > 14.7 | > 14.7 | > 14.7 | > 14.7 | > 14.7 | > 14.7 |  |  |  |  |  |  |  |
| COc1cc(Nc2ncnc(-n3c(NC4CCc5ccccc54)nc4ccccc43)n2)cc(OC)c1OC (stereo not drawn) [Compound 1044] |  |  |  | 4.71 to 6.87 |  | > 8.83 | > 8.83 |  | 4.71 to 6.87 | > 8.83 | > 8.83 | 0.785 to 4.71 | 0.785 to 4.71 | > 8.83 | 6.87 to 8.83 |
| COc1ccc([C@@H](C)Nc2nc3ccccc3n2-c2ncnc(Nc3cc(OC)c(OC)c(OC)c3)n2)cc1 [Compound 1045] |  |  |  | > 8.53 |  | > 8.53 | > 8.53 |  | 0.758 to 4.55 | > 8.53 | > 8.53 | > 8.53 | 0.758 to 4.55 | > 8.53 | 0.758 to 4.55 |

Continued, values first:

| IC50 (Lck; Table 3) [µM] | IC50 (Zap-70; Table 3) [µM] | IC50 (Itk; Table 3) [µM] | IC50 (EGFR) [µM] | IC50 (Kdr; Table 3) [µM] | IC50 (c-Met) [µM] | IC50 (AKT) [µM] | IC50 (IGFR-1 [1]) [µM] | IC50 (Lck) [µM] | IC50 (Zap-70) [µM] | IC50 (Itk) [µM] | IC50 (ErbB2) [µM] | IC50 (Kdr) [µM] | IC50 (IGFR-1 [2]) [µM] | IC50 (PDGFRB) [µM] | Compound |
| --- | --- | --- | --- | --- | --- | --- | --- | --- | --- | --- | --- | --- | --- | --- | --- |
| > 13.7 | > 13.7 | > 13.7 | > 13.7 | > 13.7 | > 13.7 | > 13.7 | > 13.7 |  |  |  |  |  |  |  | CC(C)(C)OC(=O)NCCCNc1ncnc(-c2ccccc2)n1 [Compound 17] |
| 0.938 to 5.63 | 8.21 to 10.6 | > 10.6 | > 10.6 | 0.938 to 5.63 | 8.21 to 10.6 | > 10.6 | 0.938 to 5.63 |  |  |  |  |  |  |  | COc1cccc(NC(=O)Nc2ncnc(Nc3cc(OC)c(OC)c(OC)c3)n2)c1 [Compound 21] |
| 1.18 to 7.07 | > 13.3 | > 13.3 | > 13.3 | 1.18 to 7.07 | > 13.3 | > 13.3 | > 13.3 |  |  |  |  |  |  |  | COc1cc(Nc2ncnc(-c3ccncc3)n2)cc(OC)c1OC [Compound 42] |
| > 15.4 | > 15.4 | > 15.4 | > 15.4 | 12 to 15.4 | > 15.4 | > 15.4 | > 15.4 |  |  |  |  |  |  |  | NC(=O)c1cccc(Nc2ncnc(-c3ccccc3)n2)c1 [Compound 151] |
| > 14.4 | > 14.4 | > 14.4 | > 14.4 | 11.2 to 14.4 | > 14.4 | > 14.4 | > 14.4 |  |  |  |  |  |  |  | Clc1ncnc(Nc2ccc(OCc3ccccc3)cc2)n1 [Compound 153] |
| > 9.29 | > 9.29 | > 9.29 | > 9.29 | 4.95 to 7.22 | > 9.29 | 7.22 to 9.29 | > 9.29 |  |  |  |  |  |  |  | CC(C)(C)OC(=O)Nc1ccc(Nc2ncnc(Nc3ccc(OCc4ccccc4)cc3)n2)cc1 [Compound 162] |
